Measured values as given in ChEMBL document CHEMBL5303573, “Mapping human microbiome drug metabolism by gut bacteria and their genes” (Nature, 2019).

What was measured:
[1] = The drug is tested on Odoribacter splanchnicus strain: fecal isolate for biotransformation. The drug concentrations were measured before and after a 12-h incubation by liquid-chromatography-coupled mass spectrometry (LC–MS); details: 2 µM
[2] = The drug is tested on Clostridium sp. strain: fecal isolate for biotransformation. The drug concentrations were measured before and after a 12-h incubation by liquid-chromatography-coupled mass spectrometry (LC–MS); details: 2 µM
[3] = The drug is tested on Coprococcus comes strain: ATCC27758 for biotransformation. The drug concentrations were measured before and after a 12-h incubation by liquid-chromatography-coupled mass spectrometry (LC–MS); format: ADME; design: dose 2 uM, timepoint 0 vs 12 hours; details: 2 µM
[4] = The drug is tested on Subdoligranulum variabile strain: DSM15176 for biotransformation. The drug concentrations were measured before and after a 12-h incubation by liquid-chromatography-coupled mass spectrometry (LC–MS); details: 2 µM
[5] = bacteroides thetaiotaomicron, 12 h, 2 µM
Description: The drug is tested on Bacteroides thetaiotaomicron strain: 7330 for biotransformation. The drug concentrations were measured before and after a 12-h incubation by liquid-chromatography-coupled mass spectrometry (LC–MS)

[6] = The drug is tested on Clostridium ramosum strain: DSM1402 for biotransformation. The drug concentrations were measured before and after a 12-h incubation by liquid-chromatography-coupled mass spectrometry (LC–MS); details: thomasclavelia ramosa, 2 µM
[7] = akkermansia muciniphila, 12 h, 2 µM
Description: The drug is tested on Akkermansia muciniphila strain: ATCC BAA-835 for biotransformation. The drug concentrations were measured before and after a 12-h incubation by liquid-chromatography-coupled mass spectrometry (LC–MS)

| SMILES | Bacterial Biotransformation [1] | Bacterial Biotransformation [2] | Bacterial Biotransformation [3] | Bacterial Biotransformation [4] | Bacterial Biotransformation [5] | Bacterial Biotransformation [6] | Bacterial Biotransformation [7] |
| --- | --- | --- | --- | --- | --- | --- | --- |
| C=CCc1ccccc1OCC(O)CNC(C)C (configuration not stated) [ALPRENOLOL] | Compound NOT metabolized | Compound NOT metabolized | Compound NOT metabolized | Compound NOT metabolized | Compound NOT metabolized | – | – |
| c1ccc([C@H]2CN3CCSC3=N2)cc1 [LEVAMISOLE] | Compound metabolized | Compound metabolized | Compound metabolized | Compound NOT metabolized | Compound metabolized | – | – |
| O=C(O)COCCN1CCN(C(c2ccccc2)c2ccc(Cl)cc2)CC1 (configuration not stated) [CETIRIZINE] | – | – | Compound NOT metabolized | Compound metabolized | Compound metabolized | Compound NOT metabolized | Compound NOT metabolized |
| CN1C[C@H](C(=O)N[C@]2(C)O[C@@]3(O)[C@@H]4CCCN4C(=O)[C@H](Cc4ccccc4)N3C2=O)C=C2c3cccc4[nH]cc(c34)C[C@H]21.CN1C[C@H](C(=O)N[C@]2(C)O[C@@]3(O)[C@@H]4CCCN4C(=O)[C@H](Cc4ccccc4)N3C2=O)C=C2c3cccc4[nH]cc(c34)C[C@H]21.O=C(O)C(O)C(O)C(=O)O [ERGOTAMINE TARTRATE] | Compound metabolized | – | – | – | Compound metabolized | Compound metabolized | Compound metabolized |
| CCOC(=O)[C@H](CCc1ccccc1)N[C@@H](C)C(=O)N1[C@H](C(=O)O)C[C@H]2CCCC[C@@H]21 [TRANDOLAPRIL] | Compound metabolized | – | Compound NOT metabolized | – | – | Compound NOT metabolized | Compound NOT metabolized |
| CCOC(=O)[C@H](CCc1ccccc1)N[C@@H](C)C(=O)N1Cc2ccccc2C[C@H]1C(=O)O | Compound metabolized | Compound metabolized | Compound NOT metabolized | Compound metabolized | Compound metabolized | – | – |
| CN1C(=O)CCS(=O)(=O)C1c1ccc(Cl)cc1 (configuration not stated) [CHLORMEZANONE] | Compound NOT metabolized | Compound metabolized | – | – | – | Compound NOT metabolized | Compound NOT metabolized |
| CN(C)CCC=C1c2ccccc2C=Cc2ccccc21 [CYCLOBENZAPRINE] | Compound NOT metabolized | Compound metabolized | Compound NOT metabolized | – | – | Compound NOT metabolized | – |
| CCC1(c2ccc(N)cc2)CCC(=O)NC1=O (configuration not stated) [AMINOGLUTETHIMIDE] | Compound NOT metabolized | – | Compound NOT metabolized | – | Compound NOT metabolized | Compound NOT metabolized | Compound NOT metabolized |
| CC(C)NCC(O)COc1ccc(CC(N)=O)cc1 (configuration not stated) [ATENOLOL] | – | Compound NOT metabolized | Compound NOT metabolized | – | – | – | Compound NOT metabolized |
| CN(C)CCOC(c1ccc(Cl)cc1)c1ccccn1.O=C(O)/C=C\C(=O)O (configuration not stated) [CARBINOXAMINE MALEATE] | Compound NOT metabolized | Compound NOT metabolized | Compound NOT metabolized | – | Compound NOT metabolized | Compound NOT metabolized | Compound NOT metabolized |
| CCOc1cc(CC(=O)N[C@@H](CC(C)C)c2ccccc2N2CCCCC2)ccc1C(=O)O [REPAGLINIDE] | Compound NOT metabolized | Compound NOT metabolized | Compound NOT metabolized | – | Compound metabolized | – | Compound NOT metabolized |
| CC(C)NCC(O)COc1ccc(COCCOC(C)C)cc1.CC(C)NCC(O)COc1ccc(COCCOC(C)C)cc1.O=C(O)/C=C/C(=O)O (configuration not stated) [BISOPROLOL FUMARATE] | Compound NOT metabolized | Compound NOT metabolized | Compound NOT metabolized | – | Compound NOT metabolized | Compound NOT metabolized | – |
| O=P1(N(CCCl)CCCl)NCCCO1 (configuration not stated) [CYCLOPHOSPHAMIDE ANHYDROUS] | Compound NOT metabolized | Compound NOT metabolized | – | Compound NOT metabolized | – | – | Compound NOT metabolized |
| CCCC1O[C@@H]2C[C@H]3[C@@H]4CCC5=CC(=O)C=C[C@]5(C)[C@H]4[C@@H](O)C[C@]3(C)[C@]2(C(=O)CO)O1 (some centres not stated) [BUDESONIDE] | Compound metabolized | Compound metabolized | Compound NOT metabolized | – | Compound NOT metabolized | – | Compound NOT metabolized |
| CCCC(C)(COC(N)=O)COC(=O)NC(C)C (configuration not stated) [CARISOPRODOL] | – | Compound metabolized | Compound NOT metabolized | – | Compound metabolized | Compound NOT metabolized | Compound NOT metabolized |
| Clc1cccc(Cl)c1N=C1NCCN1 [CLONIDINE] | Compound metabolized | Compound NOT metabolized | Compound NOT metabolized | – | Compound metabolized | Compound NOT metabolized | Compound NOT metabolized |
| C[N+]12CCC(CC1)C(OC(=O)C(O)(c1ccccc1)c1ccccc1)C2.[Br-] (configuration not stated) [CLIDINIUM BROMIDE] | – | Compound NOT metabolized | Compound NOT metabolized | Compound NOT metabolized | Compound NOT metabolized | – | Compound NOT metabolized |
| CN/C(=N/CCSCc1nc[nH]c1C)NC#N [CIMETIDINE] | – | – | Compound NOT metabolized | – | – | Compound NOT metabolized | Compound NOT metabolized |
| CC(C)NCC(O)COc1ccc(CCOCC2CC2)cc1 (configuration not stated) [BETAXOLOL] | Compound NOT metabolized | Compound NOT metabolized | Compound NOT metabolized | – | Compound NOT metabolized | Compound NOT metabolized | Compound NOT metabolized |
| COC(=O)[C@H](c1ccccc1Cl)N1CCc2sccc2C1.O=S(=O)(O)O [CLOPIDOGREL BISULFATE] | Compound metabolized | Compound metabolized | Compound NOT metabolized | Compound NOT metabolized | Compound metabolized | – | Compound NOT metabolized |
| CC(C)(C#N)c1cc(Cn2cncn2)cc(C(C)(C)C#N)c1 [ANASTROZOLE] | Compound metabolized | Compound metabolized | Compound NOT metabolized | – | Compound metabolized | Compound NOT metabolized | Compound metabolized |
| NC12CC3CC(CC(C3)C1)C2 [AMANTADINE] | Compound NOT metabolized | Compound NOT metabolized | Compound NOT metabolized | – | Compound metabolized | Compound NOT metabolized | Compound NOT metabolized |
| COc1ccc2c(c1OC)C(=O)O[C@@H]2[C@H]1c2c(cc3c(c2OC)OCO3)CCN1C [NOSCAPINE] | Compound metabolized | – | Compound metabolized | – | Compound metabolized | Compound NOT metabolized | Compound metabolized |
| CC(C)(Oc1ccc(CCNC(=O)c2ccc(Cl)cc2)cc1)C(=O)O [BEZAFIBRATE] | Compound metabolized | Compound metabolized | Compound metabolized | – | Compound metabolized | – | Compound metabolized |
| Cc1nc2n(c(=O)c1CCN1CCC(c3noc4cc(F)ccc34)CC1)CCCC2 [RISPERIDONE] | Compound metabolized | Compound metabolized | Compound metabolized | Compound metabolized | Compound NOT metabolized | – | Compound NOT metabolized |
| Clc1ccc(Cn2c(CN3CCCC3)nc3ccccc32)cc1 [CLEMIZOLE] | Compound NOT metabolized | – | Compound NOT metabolized | Compound NOT metabolized | Compound NOT metabolized | Compound NOT metabolized | – |
| CCCc1nc(C(C)(C)O)c(C(=O)OCc2oc(=O)oc2C)n1Cc1ccc(-c2ccccc2-c2nnn[nH]2)cc1 [OLMESARTAN MEDOXOMIL] | Compound metabolized | Compound metabolized | – | Compound metabolized | Compound metabolized | – | Compound metabolized |
| Br.CN(C)CCCC1(c2ccc(F)cc2)OCc2cc(C#N)ccc21 (configuration not stated) [CITALOPRAM HYDROBROMIDE] | – | Compound NOT metabolized | Compound NOT metabolized | – | Compound NOT metabolized | Compound NOT metabolized | Compound NOT metabolized |
| NS(=O)(=O)c1cc2c(cc1Cl)N=C(CSCc1ccccc1)NS2(=O)=O [BENZTHIAZIDE] | Compound NOT metabolized | Compound metabolized | – | – | Compound NOT metabolized | – | Compound NOT metabolized |
